Laboratory results published in patent publication US20230157952A1, “METHOD FOR IMPROVING THE STABILITY OF A PHARMACEUTICAL COMPOSITION COMPRISING A HIGH PENETRATION DRUG, AND THE PHARMACEUTICAL COMPOSITION OBTAINED THEREFROM” (Techfields Inc., priority 2020, published 2023).

How the values were obtained:
[1] = Effect of concentration on the stability of the solution (purity over time); settings: in water at 25° C.
[2] = Effect of temperature (and pH) on the stability of the solution (purity); type: physicochemical; settings: 7% solution in water

Purity at Day 3 ([1]; 0.01 wt %): 83.4% | Purity at Day 7 ([1]; 0.01 wt %): 74.2% | Purity at Day 14 ([1]; 0.01 wt %): 58.4% | Purity at Day 21 ([1]; 0.01 wt %): 46.5% | Purity at Day 28 ([1]; 0.01 wt %): 37.5% | Purity at hr 0 ([1]; 0.01 wt %): 98.4% | Purity at Day 3 ([1]; 0.1 wt %): 96.7% | Purity at Day 7 ([1]; 0.1 wt %): 95.6% | Purity at Day 14 ([1]; 0.1 wt %): 91.5% | Purity at Day 21 ([1]; 0.1 wt %): 84.7% | Purity at Day 28 ([1]; 0.1 wt %): 80.5% | Purity at hr 0 ([1]; 0.1 wt %): 98.5% | Purity at Day 3 ([1]; 1 wt %): 96.6% | Purity at Day 7 ([1]; 1 wt %): 95.5% | Purity at Day 14 ([1]; 1 wt %): 92.9% | Purity at Day 21 ([1]; 1 wt %): 90.9% | Purity at Day 28 ([1]; 1 wt %): 89.1% | Purity at hr 0 ([1]; 1 wt %): 98.7% | Purity at Day 3 ([1]; 3 wt %): 96.5% | Purity at Day 7 ([1]; 3 wt %): 96.2% | Purity at Day 14 ([1]; 3 wt %): 94.8% | Purity at Day 21 ([1]; 3 wt %): 94.0% | Purity at Day 28 ([1]; 3 wt %): 92.7% | Purity at hr 0 ([1]; 3 wt %): 98.9% | Purity at Day 3 ([1]; 5 wt %): 98.4% | Purity at Day 7 ([1]; 5 wt %): 98.0% | Purity at Day 14 ([1]; 5 wt %): 97.8% | Purity at Day 21 ([1]; 5 wt %): 96.6% | Purity at Day 28 ([1]; 5 wt %): 95.4% | Purity at hr 0 ([1]; 5 wt %): 98.9% | Purity at Day 3 ([1]; 7 wt %): 98.6% | Purity at Day 7 ([1]; 7 wt %): 98.2% | Purity at Day 14 ([1]; 7 wt %): 98.2% | Purity at Day 21 ([1]; 7 wt %): 97.7% | Purity at Day 28 ([1]; 7 wt %): 97.5% | Purity at hr 0 ([1]; 7 wt %): 99.1% | Purity at Day 3 ([1]; 8 wt %): 98.7% | Purity at Day 7 ([1]; 8 wt %): 98.3% | Purity at Day 14 ([1]; 8 wt %): 97.9% | Purity at Day 21 ([1]; 8 wt %): 97.9% | Purity at Day 28 ([1]; 8 wt %): 97.6% | Purity at hr 0 ([1]; 8 wt %): 99.1% | Purity at Day 3 ([1]; 10 wt %): 98.8% | Purity at Day 7 ([1]; 10 wt %): 98.5% | Purity at Day 14 ([1]; 10 wt %): 98.3% | Purity at Day 21 ([1]; 10 wt %): 98.1% | Purity at Day 28 ([1]; 10 wt %): 97.5% | Purity at hr 0 ([1]; 10 wt %): 99.2% | Purity at Day 3 ([1]; 15 wt %): 98.7% | Purity at Day 7 ([1]; 15 wt %): 98.6% | Purity at Day 14 ([1]; 15 wt %): 98.4% | Purity at Day 21 ([1]; 15 wt %): 98.1% | Purity at Day 28 ([1]; 15 wt %): 97.8% | Purity at hr 0 ([1]; 15 wt %): 99.1% | Purity at Day 3 ([1]; 20 wt %): 98.8% | Purity at Day 7 ([1]; 20 wt %): 98.5% | Purity at Day 14 ([1]; 20 wt %): 98.2% | Purity at Day 21 ([1]; 20 wt %): 98.1% | Purity at Day 28 ([1]; 20 wt %): 97.7% | Purity at hr 0 ([1]; 20 wt %): 99.0% | Purity at Day 3 ([1]; 30 wt %): 98.7% | Purity at Day 7 ([1]; 30 wt %): 98.5% | Purity at Day 14 ([1]; 30 wt %): 98.3% | Purity at Day 21 ([1]; 30 wt %): 98.0% | Purity at Day 28 ([1]; 30 wt %): 97.8% | Purity at hr 0 ([1]; 30 wt %): 99.1% | Purity at Day 3 ([1]; 50 wt %): 98.8% | Purity at Day 7 ([1]; 50 wt %): 98.5% | Purity at Day 14 ([1]; 50 wt %): 98.2% | Purity at Day 21 ([1]; 50 wt %): 98.9% | Purity at Day 28 ([1]; 50 wt %): 97.8% | Purity at hr 0 ([1]; 50 wt %): 99.1% | Stability when the concentration is 0.1% or lower [1]: not stable | Stability of the solution at a temperature higher than 40° C. and a pH lower than 3 or greater than 6 [2]: not stable
SMILES: CCN(CC)CCOC(=O)Cc1sc(-c2ccccc2)nc1-c1ccc(Cl)cc1.Cl [2-(diethylamino)ethyl 4-(4-chlorophenyl)-2-phenyl-5-thiazoleacetate•HCl]
